In one assay the target is T1, human Arginine Vasopressin Receptor 1b (AVPR1b) (Homo sapiens, UniProt P47901).
T1 construct: expressed in transfected cells; host or cells: CHO (CHO-AVPR1b, kept under G418 selection)
T1 sequence (P47901 1-424): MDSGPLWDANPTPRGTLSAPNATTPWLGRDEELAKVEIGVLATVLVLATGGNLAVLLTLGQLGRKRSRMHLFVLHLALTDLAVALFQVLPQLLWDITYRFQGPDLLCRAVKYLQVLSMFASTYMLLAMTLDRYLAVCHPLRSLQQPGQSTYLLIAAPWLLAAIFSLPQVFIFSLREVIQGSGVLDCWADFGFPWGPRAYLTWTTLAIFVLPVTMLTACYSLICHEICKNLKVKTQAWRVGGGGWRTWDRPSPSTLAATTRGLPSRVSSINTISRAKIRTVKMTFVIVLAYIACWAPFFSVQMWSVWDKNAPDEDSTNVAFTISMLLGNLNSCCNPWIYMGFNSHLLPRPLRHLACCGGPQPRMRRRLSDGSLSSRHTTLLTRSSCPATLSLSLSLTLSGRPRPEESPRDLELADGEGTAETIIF
Nature of the assay: Vasopressin V1b receptor antagonist assay (FLIPR calcium, CHO-AVPR1b cells). It is filed as cell-based. How it is done:
The purpose of the assay was to determine the inhibitory effect of synthesized compounds on the Vasopressin V1b receptor. The assay was performed in Chinese Hamster Ovary (CHO) cells expressing the human Arginine Vasopressin Receptor 1b (AVPR1b). Arginine Vasopressin (AVP) evokes an increase in intracellular calcium in CHO-AVPR1b cells which is measured in a fluorescence assay on the FLIPR^TETRA using calcium sensitive dyes. Test compounds were assessed for their ability to affect the magnitude of the response to AVP, with antagonists showing a concentration-dependent reduction in the AVP-mediated fluorescence.
CHO-AVPR1b cells were maintained in routine culture in T175 Flasks at 37° C., 5% CO2. The growth medium consisted of Ham's F12 media supplemented with 10% v/v fetal bovine serum, 1× non-essential amino acids, and 0.4 mg/ml Geneticin G418.
(§1) Cells were harvested from T175 flasks when they were 80-90% confluent by first washing the cell monolayer with PBS and then dissociated using trypsin 0.05%/EDTA (3 mL for a T175 Flask). The flasks were incubated at room temperature until the cells detached. To the cell suspension, 10 ml of growth media was added and the cell density determined using the Vi-Cell automated cell counter. The cells were spun at 1000 rpm for 3 minutes, then the supernatant was carefully removed and discarded. The cell pellet was re-suspended at 6.0e^5 cells/ml in growth media. 25 μL of cells in growth media was dispensed into each well (15,000 cells per well) of a poly-D-lysine coated black, clear bottomed, 384-well plate. The plates were incubated at 37° C., 5% CO2 overnight.
(§2) At the start of each assay day, the potency of AVP was assessed and an EC80 concentration determined for subsequent compound profiling. Assays were performed using a two-step addition protocol on the FLIPR^TETRA; first addition of 5 μl of control or test compound at 10× final in assay buffer with 15 min incubation at 37° C., 5% CO2 followed by 10 μl of AVP at 6× final concentration in assay buffer. Changes in fluorescence were monitored for 3 min after both additions on the FLIPR^TETRA using 470-495 nm excitation and 515-575 nm emission wavelengths. The assay buffer consisted of HBSS (+Ca/+Mg) supplemented with 20 mM HEPES, and for the preparation of the AVP agonist only, 0.1% w/v bovine serum albumin. The assay was initiated by the removal of growth media from the cells and replacement with 45 μl of Calcium-6 dye (Molecular Devices) prepared at 1× in assay buffer. Cells were loaded with dye for 60-90 min at 37° C., 5% CO2 before initiation of the FLIPR^TETRA protocol. […] For compound profiling, test compounds were first serially diluted in DMSO (10-point curve, 1:3 dilutions) then diluted 33.3-fold in assay buffer prior to addition to the dye loaded cells on the FLIPR^TETRA. At the end of the incubation period 10 μl of AVP in assay buffer containing 0.1% BSA was added at the previously determined EC80 concentration.
In-plate controls for the assay included a Nelivaptan concentration-response curve as the reference V1b antagonist and an AVP concentration-response curve to confirm the reproducibility of the EC80 used for the compound challenge.
For the compound `O=C(N1CC2(C1)CN(c1ncccc1F)C2)N1CCOc2cc(Cl)ccc21` [1-1, (7-chloro-2,3-dihydro-4H-benzo[b][1,4]oxazin-4-yl)(6-(3-fluoropyridin-2-yl)-2,6-diazaspiro[3.3]heptan-2-yl)methanone], the half-inhibitory concentration (IC50) was at least 1000 nM.

For another assay, the target named is T2, human Arginine Vasopressin Receptor 1a (AVPR1a) (Homo sapiens, UniProt P37288).
T2 construct: expressed in transfected cells; host or cells: CHO (CHO-AVPR1a, kept under G418 selection)
T2 sequence (P37288 whole entry): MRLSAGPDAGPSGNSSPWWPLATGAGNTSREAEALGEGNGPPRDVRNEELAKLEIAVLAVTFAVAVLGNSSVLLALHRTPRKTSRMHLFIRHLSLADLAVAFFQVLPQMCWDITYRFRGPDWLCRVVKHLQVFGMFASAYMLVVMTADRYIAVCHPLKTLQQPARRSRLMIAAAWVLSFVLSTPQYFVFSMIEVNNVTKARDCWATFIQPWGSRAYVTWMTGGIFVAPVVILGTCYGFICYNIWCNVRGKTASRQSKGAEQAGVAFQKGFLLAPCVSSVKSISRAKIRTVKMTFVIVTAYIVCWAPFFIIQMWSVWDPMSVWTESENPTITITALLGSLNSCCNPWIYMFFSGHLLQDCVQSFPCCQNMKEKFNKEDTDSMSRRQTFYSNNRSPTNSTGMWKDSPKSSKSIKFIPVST
Nature of the assay: Vasopressin V1a receptor antagonist assay (FLIPR calcium, CHO-AVPR1a cells). It counts as cell-based. How it is done:
The purpose of this assay was to determine the inhibitory effect of synthesized compounds on the Vasopressin V1a receptor. The assay was performed in Chinese Hamster Ovary (CHO) cells expressing the human Arginine Vasopressin Receptor 1a (AVPR1a). Arginine Vasopressin (AVP) evokes an increase in intracellular calcium in CHO-AVPR1a cells which is measured in a fluorescence assay on the FLIPR^TETRA using calcium sensitive dyes. Test compounds were assessed for their ability to affect the magnitude of the response to AVP, with antagonists showing a concentration-dependent reduction in the AVP-mediated fluorescence. Compounds were tested in duplicate in a 10-point, 1:3 dilution series starting at a nominal concentration of 3 μM in the assay.
CHO-AVPR1a cells were maintained in routine culture in T175 Flasks at 37° C., 5% CO2. The growth medium consists of Ham's F12 media supplemented with 10% v/v fetal bovine serum, 1× non-essential amino acids, and 0.4 mg/ml Geneticin G418.
as §1, with “On day one, cells were” for “Cells were”, “they are” for “they were”
as §2, with “period,” for “period”
In-plate controls for the assay included balovaptan and PF-184563 concentration-response curves as reference V1a antagonists, and an AVP concentration-response curve to confirm the reproducibility of the EC80 used for the compound challenge.
With `O=C(N1CC2(C1)CN(c1ncccc1F)C2)N1CCOc2cc(Cl)ccc21` [1-1, (7-chloro-2,3-dihydro-4H-benzo[b][1,4]oxazin-4-yl)(6-(3-fluoropyridin-2-yl)-2,6-diazaspiro[3.3]heptan-2-yl)methanone], the IC50 is below 100 nM.
The same measure, in the same setting: the same measure for `O=C(N1CC2(C1)CN(c1ccc(F)cn1)C2)N1CCOc2c1ccc(F)c2F` [9-5]: below 100 nM; for `O=C(N1CC2(C1)CN(c1ccc(F)cn1)C2)N1CCCc2cc(Cl)ccc21` [9-8]: below 100 nM.
Same read-out and setting: the same measure for `CC1(C)CCN(C(=O)N2CC3(C2)CN(c2ccc(F)cn2)C3)c2ccc(Cl)cc21` [9-9]: below 100 nM.
The same measure, in the same setting: as for `CS(=O)(=O)N1CC2(CN(C(=O)N3CCOc4cc(Cl)ccc43)C2)C1` [10-1, (7-chloro-2,3-dihydro-4H-benzo[b][1,4]oxazin-4-yl)(6-(methylsulfonyl)-2,6-diazaspiro[3.3]heptan-2-yl)methanone], the figure is at least 1000 nM; as for `O=C(N1CC2(C1)CN(c1ccccn1)C2)N1CCC(O)c2cc(Cl)ccc21` (stereo not shown) [13-2], below 100 nM.
As for `O=C(N1CC2(C1)CN(c1ncccc1F)C2)N1CCC(O)c2cc(Cl)ccc21` (stereo not shown) [13-4], the IC50 was below 100 nM.
Same read-out and setting: as for `O=C(N1CC2(C1)CN(c1ccc(F)cn1)C2)N1CCC(O)c2c1ccc(Cl)c2F` (stereo not shown) [13-5], the figure is below 100 nM.
For `CC1(O)CCN(C(=O)N2CC3(C2)CN(c2ccc(F)cn2)C3)c2ccc(Cl)cc21` (stereo not shown) [15-1, (6-chloro-4-hydroxy-4-methyl-3,4-dihydroquinolin-1(2H)-yl)(6-(5-fluoropyridin-2-yl)-2,6-diazaspiro[3.3]heptan-2-yl)methanone], the 50% inhibitory concentration (IC50) was below 100 nM.
With `COC1CCN(C(=O)N2CC3(C2)CN(c2ccc(F)cn2)C3)c2ccc(Cl)cc21` (stereo not shown) [16-1, (6-chloro-4-methoxy-3,4-dihydroquinolin-1(2H)-yl)(6-(5-fluoropyridin-2-yl)-2,6-diazaspiro[3.3]heptan-2-yl)methanone], the half-inhibitory concentration (IC50) was below 100 nM.
Still for that read-out and setting: as for `CC1COc2cc(Cl)ccc2N1C(=O)N1CC2(C1)CN(c1ncc(F)cn1)C2` (stereo not shown) [18-2], the figure is below 100 nM; as for `Cc1ccnc(N2CC3(CN(C(=O)N4c5ccc(F)cc5OCC4C)C3)C2)c1` (stereo not shown) [20-4], below 100 nM; as for `Cc1cnc(N2CC3(CN(C(=O)N4c5ccc(Cl)cc5OCC4C)C3)C2)cn1` (stereo not shown) [20-5], below 100 nM.
Same read-out and setting: the same measure for `CC1COc2cc(Cl)ccc2N1C(=O)N1CC2(C1)CN(c1cc(=O)n(C)cn1)C2` (stereo not shown) [20-14]: 100 to 500 nM.
Still for that read-out and setting: as for `CC1COc2cc(Cl)ccc2N1C(=O)N1CC2(C1)CN(c1ncc(C3CC3)cn1)C2` (stereo not shown) [21-7], the figure is 100 to 500 nM.

One may read the IC50 as the concentration at which inhibition is half-maximal.

These data come from patent publication US12152038B2, “Vasopressin receptor antagonists and products and methods related thereto” (Neumora Therapeutics, Inc., priority 2017, dated 2024).
